What all share (type): cell-based
The subject of assay [1] is SNU449 human liver cancer cells. The assay is described as follows: Reactivity of M2 variants in SNU449. How it is done: To examine the ability of the compound to inhibit the growth of the breast cancer cell line, the compounds was treated at each indicated μM concentration 1 and 3 days after cell attachment, and the control was treated with a 0.1% solvent (DMSO). After another two days, the cell lines that were attached to the culture plate and grew were rinsed with 1×PBS and treated with 4% paraformaldehyde at room temperature for 10 minutes to fix the cells. Then, after cells were rinsed twice with PBS, the fixed cells were treated with a 0.5% Triton X-100 solution and reacted at room temperature for 15 minutes, rinsed another three times with PBS, and then treated with a DAPI reagent at 0.5 μg/ml, and reacted at 37° C. for 10 minutes to stain the cell nuclei. After the cells were additionally rinsed once with PBS, cells stained with DAPI were photographed by Cytation 3, and the resulting images were analyzed with Gen5 software (Biotek, USA). Meanwhile, cells that grew in a floating manner without being attached to the culture plate were treated with a 4% paraformaldehyde solution, reacted at room temperature for 10 minutes to fix the cells, and then photographed in a bright field by Cytation3, and the resulting images were analyzed by Gen5 software (Biotek, USA).
To analyze the ability to inhibit the growth of liver cancer cell lines, 6.6×10^3 HepG2 cells per well, 1×10^3 cells of each of Hep3B, SNU-475, and SNU-449 per well, and 2×10^3 SNU-387 cells per well were aliquoted in a 96-well plate, cultured in the same manner as described above, treated with Compound 2 (M2), Compound 3 (M4), Compound 4 (M21), Compound 5 (M23), and Compound 6 (M25), and then the ability to inhibit the growth of cells was analyzed.

The test system of assay [2] is MDA-MB-468 cells. Briefly: Cancer cell growth inhibition (DAPI nuclei count), breast cancer line. Particulars: treated 1 and 3 days after attachment. The procedure:
For this purpose, experiments were performed using liver cancer, breast cancer, hematologic cancer, cervical cancer, and prostate cancer cell lines, a murine liver cancer cell line HEPA 1-6 and a breast cancer cell line MDA-MB-468 were cultured in a DMEM medium supplemented with 10% fetal bovine serum (FBS) and 1% penicillin/streptomycin, the other cell lines were cultured in a RPMI1640 medium supplemented with the same additives, and the cell lines were used in the experiment.
To examine the ability of the compound to inhibit the growth of the breast cancer cell line, the compounds was treated at each indicated μM concentration 1 and 3 days after cell attachment, and the control was treated with a 0.1% solvent (DMSO). […] After the cells were additionally rinsed once with PBS, cells stained with DAPI were photographed by Cytation 3, and the resulting images were analyzed with Gen5 software (Biotek, USA). Meanwhile, cells that grew in a floating manner without being attached to the culture plate were treated with a 4% paraformaldehyde solution, reacted at room temperature for 10 minutes to fix the cells, and then photographed in a bright field by Cytation3, and the resulting images were analyzed by Gen5 software (Biotek, USA). […]

The subject of assay [3] is HepG2 cells. Briefly: Cell viability after treatment (Hoechst 33342). Conditions: HepG2, various concentrations, two treatments 48 hours apart. How it is done: HepG2 cells, a hepatocellular carcinoma cell line, were plated with 4 to 6 replications at each hit compound concentration in a 96-well microtiter plate supplemented with a culture medium. The hit compound dissolved in DMSO was added the next day according to the design of experiments, and the number of seeded cells was determined by the cell density reaching 80% on the final day of the protocol treated as a cell control. After 24 hours of cell seeding, cells were treated with hit compounds (M2 and BI2536) at various concentrations, and 48 hours after primary treatment, the medium was aspirated and then secondary treatment was performed. After 48 hours, cell nuclei were visualized by 2.5 μM Hoechst 33342 staining at 37° C. for 30 minutes, then the medium was aspirated and washed with a fresh medium. The plate was read using Cytation™ 3 (BioTek, USA), the cell viability was analyzed, and the results were presented as a relative percentage of viable cells after treatment with the hit compound compared to the control treatment.

Assay [4] has as its system liver cancer cell lines. The assay is described as follows: Mixed treatment of Compound 2 (M2) and BI2536. Particulars: mixture of Compound 2 (M2) at a low concentration and BI2536.
For assay [5], the system named is HepG2 cell. The assay is described as follows: Apoptosis by annexin V-FITC / PI flow cytometry. Particulars: HepG2, 3 days; M2 20 or 100 μM; BI2536 20 or 100 nM. The procedure:
To analyze the pattern of apoptosis by exposure to M2, HepG2 cell, a hepatocellular carcinoma cell line, were treated with 20 or 100 μM M2 and 20 or 100 nM BI2536 for 3 days. The apoptosis was detected by annexin V-fluorescein isothiocyanate (annexin V-FITC) and propidium iodide (PI) staining of necrotic and apoptosis cells. First, cells were harvested and washed once with PBS. The cells were then resuspended in a 100 μl binding buffer containing 4 μl of Annexin V (BD, 51-65874X) and PI (BD, 51-66211E). The cells were stained at 37° C. for 15 minutes in the dark and then analyzed using FACSan (BD, San Jose, Calif.). Data was analyzed using CELLQuest software (BD).
For orientation: Flow cytometry measures light scatter and fluorescence of single cells or particles in a stream.

`Cn1c2nc(=O)[nH]c(=O)c-2nc2ccccc21` [Compound 2, 10-methyl-2H,3H,4H,10H-benzo[g]pteridine-2,4-dione]: the “number of cancer cells” value in assay [1] is “the number of cancer cells was remarkably reduced in a dose-dependent manner”. For the same compound, the number of cells entry in assay [2] is recorded as “the number of cells was remarkably reduced in proportion to the treatment concentration”. Also, the cell viability result in assay [3] is given as “the relatively less the cell viability became”. In addition, in assay [4], the “inhibition of cancer cells by mixed treatment” value is recorded as “the cooperative ability of BI2536 to inhibit cancer cells could be observed”. In assay [5], the apoptosis cells entry is recorded as “apoptosis cells were increased” and the “apoptosis with increasing dose” value was “apoptosis was increased in a dose-dependent manner”.

For the origin of these results see patent US20220033405A1, “PHARMACEUTICAL COMPOSITION FOR PREVENTING OR TREATING CANCER CONTAINING PLK1 INHIBITOR AS ACTIVE INGREDIENT” (NATIONAL CANCER CENTER, priority 2018, published 2022).
